Test results taken from patent publication US20240381872A1, “SUBSTITUTED 2,3-DIHYDRO[1,3]THIAZOLO[4,5-B]PYRIDINES, SALTS THEREOF AND THEIR USE AS HERBICIDALLY ACTIVE SUBSTANCES” (BAYER AKTIENGESELLSCHAFT, priority 2021, published 2024).

Assays:
Type in all cases: in vivo
Stellaria media (STEME) [1] = assay: Herbicidal pre-emergence action, section A (Table A9); conditions: for pre-emergence activity against STEME in % / pest or weed control at 1280 g/ha: application rate 1280 g/ha; for pest or weed control at 320 g/ha / pest or weed control at 1280 g/ha: Stellaria media, 504 h, read-out: pre-emergence activity against STEME in %; for pest or weed control at 320 g/ha: application rate 320 g/ha
Procedure, shortened: (§1)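 Percent herbicidal effect relative to untreated plants (0% = as control, 100% = died off) scored visually about 3 weeks after treatment. Compounds formulated as WP or EC were sprayed at 600 L/ha with 0.5% additive onto covering soil of freshly sown sandy-loam pots, then kept under greenhouse conditions.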

Zea mays (ZEAMX) = assay: Post-emergence effects on crop plants, section F (Table F1); conditions: application rate 320 g/ha; for post-emergence activity against ZEAMX in %: crop plant damage; for percent crop plant damage (phytotoxicity) on Zea mays, post-emergence at 320 g/ha: 504 h, read-out: post-emergence activity against ZEAMX in %
Procedure, shortened: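 Post-emergence greenhouse test: crops grown 2 to 3 weeks in sandy loam, sprayed at 320 g/ha or less in 600 l water/ha with 0.5% additive. Injury rated visually as percent relative to controls roughly three weeks later.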

[2] = tested on: Digitaria sanguinalis (DIGSA); assay: Herbicidal pre-emergence action, section A (Table A12)
Procedure, shortened: as §1

[3] = tested on: Matricaria inodora (MATIN); assay: Herbicidal pre-emergence action, section A (Table A6); conditions: visual grading after ca. 3 weeks vs untreated controls; for pest or weed control at 1280 g/ha: application rate 1280 g/ha
Procedure, shortened: as §1

Veronica persica (VERPE) [4] = assay: Herbicidal post-emergence action, section B (Table B10); conditions: visual rating about 3 weeks after treatment vs untreated controls; for pest or weed control at 320 g/ha: Veronica persica, post-emergence, 504 h, read-out: post-emergence activity against VERPE in %
Procedure, shortened: (§2)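 Greenhouse post-emergence spray on one-leaf-stage plants (sown in sandy loam, 2 to 3 weeks old). WP/EC formulations in water + 0.5% additive, 600 liters per hectare. Read-out: visual % activity vs untreated, ~3 weeks after treatment; 100% = dead, 0% = as control.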

[5] = tested on: Alopecurus myosuroides (ALOMY); assay: Herbicidal post-emergence action, section E (Table E2); conditions: application rate 320 g/ha, assessed visually after ca. 3 weeks; for pest or weed control at 320 g/ha: Alopecurus myosuroides, post-emergence, 504 h, read-out: post-emergence activity against ALOMY in %
Description: (§3) Seeds of mono- and dicotyledonous weed plants and crop plants were sown, in plastic or organic planting pots, in sandy loam, covered with soil and grown in a greenhouse under controlled growth conditions. 2 to 3 weeks after sowing, the test plants were sprayed in the single-leaf stage. The compounds according to the invention, formulated in form of wettable powders (WP) or as emulsifiable concentrates (EC), were sprayed onto the green plant parts as aqueous suspension or emulsion, with the addition of 0.5% of an additive, at an application rate of 600 l of water/ha (converted). The test plants were placed in the greenhouse for ca. 3 weeks under optimum growth conditions, and then the effect of the preparations was assessed visually in comparison with untreated controls (herbicidal effect in percent (%): 100% effect=plants have died off, 0% effect=as control plants).

Setaria viridis (SETVI) = assay: Herbicidal pre-emergence action, section A (Table A8); conditions: for pest or weed control at 1280 g/ha / pest or weed control at 320 g/ha: Setaria viridis, 504 h, read-out: pre-emergence activity against SETVI in %
Procedure, shortened: as §1

Stellaria media (STEME) [6] = assay: Herbicidal post-emergence action, section B (Table B9); conditions: visual rating about 3 weeks after treatment vs untreated controls; for post-emergence activity against STEME in % / pest or weed control at 1280 g/ha: application rate 1280 g/ha
Procedure, shortened: as §2

Lolium rigidum (LOLRI) = assay: Herbicidal post-emergence action, section B (Table B5); conditions: application rate 1280 g/ha, visual rating about 3 weeks after treatment vs untreated controls
Protocol: Seeds of mono- and dicotyledonous weed plants were placed in plastic pots in sandy loam soil (doubly sown with in each case one species of mono- or dicotyledonous weed plants per pot), covered with soil and cultivated in a greenhouse under controlled growth conditions. 2 to 3 weeks after sowing, the test plants were treated at the one-leaf stage. The compounds of the invention, formulated in the form of wettable powders (WP) or as emulsion concentrates (EC), were applied onto the green parts of the plants as aqueous suspension or emulsion with addition of 0.5% additive at a water application rate of 600 liters per hectare (converted). After the test plants had been kept in the greenhouse under optimum growth conditions for about 3 weeks, the activity of the preparations was rated visually in comparison to untreated controls. For example, 100% activity=the plants have died, 0% activity=like control plants.

[7] = tested on: Polygonum convolvulus (POLCO); assay: Herbicidal post-emergence action, section E (Table E7); conditions: visual assessment ca. 3 weeks after spraying
Description: as §3

Veronica persica (VERPE) [8] = assay: Herbicidal post-emergence action, section E (Table E9); conditions: Veronica persica, 504 h, visual assessment ca. 3 weeks after spraying, read-out: post-emergence activity against VERPE in %; for pest or weed control at 320 g/ha: application rate 320 g/ha
Description: as §3

[9] = tested on: Amaranthus retroflexus (AMARE); assay: Herbicidal post-emergence action, section E (Table E3); conditions: Amaranthus retroflexus, post-emergence, 504 h; application rate 320 g/ha; assessed visually after ca. 3 weeks; read-out: post-emergence activity against AMARE in %
Description: as §3

[10] = tested on: Abutilon theophrasti (ABUTH); assay: Herbicidal post-emergence action, section B (Table B1); conditions: Abutilon theophrasti, 504 h, application rate 1280 g/ha, rated visually after about 3 weeks, read-out: post-emergence activity against ABUTH in %
Procedure, shortened: as §2

[11] = Tripleurospermum inodorum, pre-emergence, 504 h, read-out: pre-emergence activity against MATIN in %
[12] = Stellaria media, post-emergence, 504 h, read-out: post-emergence activity against STEME in %
[13] = Digitaria sanguinalis, 504 h, application rate 1280 g/ha, read-out: pre-emergence activity against DIGSA in %

Row | Structure (SMILES) | pre-emergence activity against STEME in % (Stellaria media (STEME) [1]) [%] | post-emergence activity against ZEAMX in % (Zea mays (ZEAMX)) [%] | post-emergence activity against STEME in % (Stellaria media (STEME) [6]) [%] | percent crop plant damage (phytotoxicity) on Zea mays, post-emergence at 320 g/ha (Zea mays (ZEAMX)) [%] | pest or weed control at 320 g/ha [5] [%] | pest or weed control at 320 g/ha [9] [%] | pest or weed control at 320 g/ha (Veronica persica (VERPE) [8]) [%] | pest or weed control at 1280 g/ha [3, 11] [%] | pest or weed control at 1280 g/ha (Stellaria media (STEME) [6]; [12]) [%] | pest or weed control at 1280 g/ha [2, 13] [%] | pest or weed control at 320 g/ha (Veronica persica (VERPE) [4]; application rate 320 g/ha) [%] | also measured
1 | COC(=O)CCC(=O)N1CSc2cc(Cl)c(-c3ccccc3F)nc21 [Example I-003] | 90 | 0 | 90 | – | – | – | – | – | – | – | – | pre-emergence activity against DIGSA in % ([2]; application rate 1280 g/ha): 100%; pre-emergence activity against MATIN in % ([3]; application rate 320 g/ha): 90%; post-emergence activity against VERPE in % (Veronica persica (VERPE) [4]; application rate 320 g/ha): 100%; post-emergence activity against ALOMY in % [5]: 80%; pre-emergence activity against SETVI in % (Setaria viridis (SETVI); application rate 320 g/ha): 100%; post-emergence activity against LOLRI in % (Lolium rigidum (LOLRI)): 90%
2 | Fc1ccccc1-c1nc2c(cc1Br)SCN2 [Example I-001, 6-bromo-5-(2-fluorophenyl)-2,3-dihydro[1,3]thiazolo[4,5-b]pyridine] | – | – | – | 10 | 90 | 80 | – | – | – | – | – | pest or weed control at 320 g/ha ([7]; Fallopia convolvulus, 504 h, application rate 320 g/ha, read-out: post-emergence activity against POLCO in %): 90%; pest or weed control at 80 g/ha (Veronica persica (VERPE) [8]; application rate 80 g/ha): 80%
3 | Cc1cc2c(nc1-c1ccccc1Cl)NCS2 [Example I-049, 5-(2-chlorophenyl)-6-methyl-2,3-dihydro[1,3]thiazolo[4,5-b]pyridine] | – | – | – | – | 80 | 90 | 80 | – | – | – | – | pest or weed control at 80 g/ha ([7]; Fallopia convolvulus, 504 h, application rate 80 g/ha, read-out: post-emergence activity against POLCO in %): 80%
4 | CC(C)C(=O)N1C[S+]([O-])c2cc(Br)c(-c3ccccc3)nc21 (centres unmarked) [Example I-067] | – | – | – | 0 | – | 80 | 90 | – | – | – | – | –
5 | CC(=O)N1CSc2cc(Br)c(-c3ccccc3Cl)nc21 [Example I-055, 1-[6-bromo-5-(2-chlorophenyl)[1,3]thiazolo[4,5-b]pyridin-3(2H)-yl]ethanone] | – | – | – | 0 | – | 80 | – | 90 | 90 | – | – | pest or weed control at 320 g/ha (Stellaria media (STEME) [1]): 90%; pest or weed control at 320 g/ha ([2]; Digitaria sanguinalis, 504 h, application rate 320 g/ha, read-out: pre-emergence activity against DIGSA in %): 100%; pest or weed control at 1280 g/ha (Setaria viridis (SETVI); application rate 1280 g/ha): 100%
6 | BN1CSc2cc(Br)c(-c3ccccc3C)nc21 [Example I-011] | 100 | 0 | 90 | – | – | – | – | – | – | – | – | post-emergence activity against POLCO in % ([7]; application rate 320 g/ha): 80%; post-emergence activity against VERPE in % (Veronica persica (VERPE) [4]; application rate 1280 g/ha): 90%; pre-emergence activity against SETVI in % (Setaria viridis (SETVI); application rate 1280 g/ha): 90%
7 | CCS(=O)(=O)N1C[S+]([O-])c2cc(C)c(-c3ccccc3C)nc21 (centres unmarked) [Example I-074] | – | – | – | – | 90 | – | 90 | – | 90 | 100 | 90 | pest or weed control at 320 g/ha (Stellaria media (STEME) [1]): 90%; pest or weed control at 320 g/ha ([3]; Tripleurospermum inodorum, pre-emergence, 504 h, application rate 320 g/ha, read-out: pre-emergence activity against MATIN in %): 90%; pest or weed control at 320 g/ha (Setaria viridis (SETVI); application rate 320 g/ha): 100%
8 | CCc1ccccc1-c1nc2c(cc1C)[S+]([O-])CN2 (centres unmarked) [Example I-047] | – | – | – | 0 | – | – | 80 | 90 | 90 | 100 | 90 | pest or weed control at 1280 g/ha (Stellaria media (STEME) [1]): 90%; pest or weed control at 1280 g/ha (Setaria viridis (SETVI); application rate 1280 g/ha): 100%
9 | Clc1ccccc1-c1nc2c(cc1Br)SCN2 [Example I-041, 6-bromo-5-(2-chlorophenyl)-2,3-dihydro[1,3]thiazolo[4,5-b]pyridine] | – | – | – | 20 | – | – | – | 90 | – | 100 | 90 | pest or weed control at 1280 g/ha (Stellaria media (STEME) [1]): 100%; pest or weed control at 1280 g/ha [10]: 90%; pest or weed control at 320 g/ha (Setaria viridis (SETVI); application rate 320 g/ha): 100%; pest or weed control at 320 g/ha (Stellaria media (STEME) [6]; Stellaria media, post-emergence, 504 h, application rate 320 g/ha, read-out: post-emergence activity against STEME in %): 90%; pest or weed control at 1280 g/ha (Lolium rigidum (LOLRI); Lolium rigidum, post-emergence, 504 h, read-out: post-emergence activity against LOLRI in %): 90%
10 | Cc1cc2c(nc1-c1cccc(C)c1F)NCS2 [Example I-113] | 90 | 0 | 90 | – | – | – | – | – | – | – | – | pre-emergence activity against DIGSA in % ([2]; application rate 320 g/ha): 100%; pre-emergence activity against SETVI in % (Setaria viridis (SETVI); application rate 320 g/ha): 100%; post-emergence activity against LOLRI in % (Lolium rigidum (LOLRI)): 90%
